Earlier results as cited in US20150010509A1 (priority 2012, published 2015).
“Also recorded” adds a separate entry of the source. Like-named read-outs stand apart in the source and are kept apart here.

Key:
[1] = test system: mammary gland adenocarcinomas; settings: CaPterin suspension 7 mg/kg/day, oral gavage, seven days; C3H/HeN-MTV+ female mice; cited from earlier work
[2] = test system: MDA-MB-231 human breast cancer cells; settings: cited from earlier work
[3] = test system: EMT6 mouse mammary tumor cells; settings: CaPterin suspension 7 mg/kg/day oral, Balb/c mice, cited from earlier work
[4] = test system: MDA-MB-231 human breast cancer cells; settings: SCID mice, cited from earlier work
[5] = molecular target: T1, IDO (indoleamine 2,3-dioxygenase) (Homo sapiens, UniProt P14902); settings: cited from earlier work
T1 construct: freshly isolated human peripheral blood mononuclear cells (PBMC); endogenous in cells; host or cells: freshly isolated human PBMC stimulated with PHA or Con A

[6] = test system: human peripheral blood mononuclear cells (PBMC); settings: cited from earlier work
[7] = test system: human peripheral blood mononuclear cells (PBMC); settings: at the concentrations tested; cited from earlier work
[8] = test system: plasma cytokines, kynurenine, tryptophan; settings: cited from earlier work
hepatitis B virus (HBV) = settings: cited from earlier work
[9] = test system: serum kyn/trp, MCP-1, GM-CSF; settings: DCP per os 14 days; regression p=0.001; cited from earlier work
M. bovis BCG = settings: cited from earlier work
[10] = test system: MIP-1β, inducible nitric oxide synthase 2, IDO gene expression; settings: infected human monocytes; cited from earlier work
[11] = cited from earlier work
[12] = Unstimulated PBMC + 200 μg/ml CaPterin
[13] = stepwise regression on CaPterin dose, p=0.047

T1 sequence (P14902 whole entry): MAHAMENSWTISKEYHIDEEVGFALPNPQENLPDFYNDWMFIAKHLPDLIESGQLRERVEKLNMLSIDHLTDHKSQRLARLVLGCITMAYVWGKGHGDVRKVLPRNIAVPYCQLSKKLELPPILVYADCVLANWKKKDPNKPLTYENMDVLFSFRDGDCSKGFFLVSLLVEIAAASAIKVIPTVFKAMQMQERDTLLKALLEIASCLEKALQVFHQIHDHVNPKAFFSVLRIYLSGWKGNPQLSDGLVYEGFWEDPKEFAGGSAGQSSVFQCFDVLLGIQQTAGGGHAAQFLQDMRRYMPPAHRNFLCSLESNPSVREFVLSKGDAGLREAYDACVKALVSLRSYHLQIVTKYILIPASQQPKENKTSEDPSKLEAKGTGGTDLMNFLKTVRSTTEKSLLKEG

For `Nc1nc2c3c(ncc[n+]3[Ca][O]2)n1`, the “ratio of Test tumor volumes to Control tumor volumes (T/C) at Day 7” value [1] is listed as 10%, the T/C ([2]; CaPterin 21 mg/(kg day), after 60 days of treatment, 5×10^6 cells, nude mice) is listed as 37% and the “T/C after 14 days” value ([2]; CaPterin suspension 7 mg/kg/day, oral gavage once daily 14 days, 5×10^6 cells, nude mice) is listed as 41%. For the same compound, the “treatment toxicity assessed by reductions in body weight” value ([2]; CaPterin suspension 7 mg/kg/day, oral gavage, 14 days, nude mice) was “No treatment toxicity”, the “toxicity (appreciable weight loss ≧10%)” value ([2]; mega-dosed by oral gavage 100 mg/(kg day) for up to 31 days) was “no observed toxicity” and the “animal toxicity determined by decreased body weight” value ([3]; 15 days) was “no measurable animal toxicity”. The “effect on tumor growth” value ([3]; once daily 15 days) was “no significant effect on tumor growth”, the antitumor efficacy ([4]; 13, 20 and 26 mg/kg CaPterin, oral gavage Monday through Friday for 75 days) was “no antitumor efficacy” and the toxicity ([4]; CaPterin suspension over 75 days) was “no measurable toxicity”. For the same compound, the Kynurenine decrease ([5]; PBMC + Con A + CaPterin) was “≦100-fold”, the Tryptophan ([5]; PBMC + Con A + CaPterin) was 17.7 µM and the Kynurenine decrease ([5]; PBMC + PHA + CaPterin) was “≦100-fold”. For the same compound, the Tryptophan ([5]; PBMC + PHA + CaPterin) was 17.7 µM, the Kynurenine [5, 12] was “did not significantly affect” and the Kynurenine/Tryptophan [5, 12] was “lower”. For the same compound, the Tryptophan [5, 12] was “did not significantly affect”, the “IDO activity / stimulation-induced tryptophan degradation” value ([5]; mitogen-stimulated PBMC) was “suppressed stimulation-induced tryptophan degradation in a dose-dependent manner” and the neopterin excretion ([6]; PBMC) was “suppressed”. The Neopterin [6, 12] was “did not influence this level”, the “toxicity by exclusion method” value [7] was “no toxicity” and the “plasma IFN-γ” value [8, 13] was “decreases”. For the same compound, the “plasma IL-6” value [8, 13] was “decreases”, the “plasma IL-10” value [8, 13] was “increases” and the plasma kynurenine ([8]; stepwise regression on CaPterin dose, p=0.047, confounded by tumor shrinkage) was “increases”.

In the case of `Nc1nc2nccnc2c(=O)[nH]1.[Ca]` [(1:2 mol/mol) calcium pterin, calcium pterin], the T/C ([2]; (1:2 mol/mol) calcium pterin 25 mg/(kg day), 10×10^6 cells, 70-98 days of treatment) is listed as 25%.

For `O.O.[Ca+2].[Cl-].[Cl-]` [Calcium chloride dihydrate, calcium chloride dihydrate], the T/C ([2]; calcium chloride dihydrate 4.2 mg/(kg day), 10×10^6 cells, 70-98 days of treatment) is listed as 25%.

In the case of `Nc1nc([O-])c2nccnc2n1.Nc1nc([O-])c2nccnc2n1.[Ca+2]` [DCP, dipterinyl calcium pentahydrate], the T/C ([2]; DCP 23 mg/(kg d), 10×10^6 cells, 70-98 days of treatment) is listed as 25%, the T/C ([2]; DCP 69 mg/(kg d), 10×10^6 cells, 70-98 days of treatment) is listed as 50% and the “tumor growth relation to plasma cytokines (DCP/APCP regression)” value ([8]; DCP treated mice, regression p=0.003) is listed as “decreases with IL-12 and IL-4, and increases with IL-6”. The “inhibition of liver HBV DNA” value (hepatitis B virus (HBV); DCP 23 mg/(kg d) per os, 14 days) was 83%, the “liver HBV DNA measured by PCR” value (hepatitis B virus (HBV); DCP per os once daily 14 days, 2.3 to 23 mg/(kg d), female HBV mice) was “significant dose-response reduction; also recorded: decreased” and the “IDO activity, serum kyn/trp” value [9] was “decreased”. The “chemokine MCP-1” value [9] was “reduced”, the “serum GM-CSF” value [9] was “increased” and the “viability of intracellular M. bovis BCG” value (M. bovis BCG; DCP treatment of infected human monocytes) was “significant reduction”. The “viability of extracellular M. bovis BCG” value (M. bovis BCG; DCP treatment) was “not extracellular”, the “C-C chemokine MIP-1β” value [10] was “induction” and the IDO gene expression [10] was “suppressed”. The “inducible nitric oxide synthase 2” value [10] was “induction”, the “reduction of OGTT/AUC (area under OGTT curve)” value ([11]; 7 mg/(kg d) DCP orally in 0.4% carboxymethylcellulose, 21 days, female DIO C57BL/6J mice, p<0.05) was 50% and the OGTT diabetic state ([11]; optimum dose 7 mg/(kg d) DCP, female DIO mice) was “significantly improved”.

For `CC(=O)O.CNC(=N)NCCC[C@H](N)C(=O)O` [L-NMMA monoacetate], the “effect on DCP inhibition of intracellular mycobacterial growth” value (M. bovis BCG; added to DCP-treated infected human monocytes) is given as “reversed the inhibitory effects of DCP on intracellular mycobacterial growth”.

In the case of `Nc1nc2nccnc2c(=O)[nH]1` [Pterin, pterin], the antitumor activity ([2]; pterin 21 mg/(kg day), nude mice) is listed as “no antitumor activity”.

For `CC(C)(C)C(=O)OCOP(=O)(COCCn1cnc2c(N)ncnc21)OCOC(=O)C(C)(C)C` [adefovir dipivoxil], the “inhibition of liver HBV DNA” value (hepatitis B virus (HBV); ADV 10 mg/(kg day)) is listed as ~83%.
